Laboratory results published in article PMC10577883, “Design and Optimization of Novel Competitive, Non-peptidic, SARS-CoV-2 M^pro Inhibitors” (ACS Medicinal Chemistry Letters, 2023).

Columns and labels:
[1] = Liver microsome metabolite identification (LC-HRMS); format: in vitro ADME
Method: Figure S15: Stability of 45 in rat liver microsomes (RLM) at 37 °C
Table S17: Stability of 43 in rat liver microsomes (RLM) at 37 °C
Time Response ratio Average RR Rel % ln
Metabolite identification
Procedure for Liver Microsome Metabolite Identification Assay: Test compounds and positive controls were dissolved in 100% DMSO to make 10 mM stock solutions. The 10 mM stock solutions of test and control […]
(1 picture or pasted object on this page, not shown here) […]
compounds were further diluted in potassium phosphate buffer (100 mM, pH 7.4) to 500 μM to ensure that the organic solvent content was < 0.2%. The liver microsome (HLM or MLM) assay was prepared in a 1.5 mL Eppendorf tube with a final volume of […] for duplicate runs. Each reaction contained phosphate buffer (374 μL), liver microsomes (550 μL), and test compound (66 μL of 500 resulting in a final concentration of 30 μM), μM for the […]
test compound. […] Aliquots (100 μL) were removed in […]
MS analysis was performed using full scan from a mass range of 100-700 m/z at 60k resolution with data dependent MS/MS and MSn programs enabled for the top 5 ions detected for each scan. Compounds are detected based on their MS1 precursor ion accurate mass m/z and identified with matching theoretical and observed accurate mass MS1 ions with interpretation of accurate mass MS/MS spectra from expected […]

[2] = in vitro; details: human, microsomes
Method: Metabolic Stability Assay
(§1) Liver Microsome Stability Assay Protocol
(§2) Human liver microsomes (HLMs, 20 mg/mL), CD-1 mouse liver microsomes (MLMs, 20 mg/mL), Sprague Dawley
(§3) rat liver microsomes (RLMs, 20 mg/mL) were purchased from Xenotech. NADPH was purchased from Sigma-
(§4) Aldrich and prepared in 10 mM stock solutions of distilled H2O (InvitrogenTM UltraPureTM). Verapamil and
(§5) diphenhydramine were both purchased from Sigma-Aldrich and served as positive controls for LM stability assays.
(§6) Test compounds and positive controls were initially dissolved in DMSO to make 10 mM stock solutions. Sample
(§7) solutions were then further diluted in 100% MeCN to 500 μM. Next, the reactions were prepared by mixing human
(§8) or mouse liver microsomes (55 μL) with potassium phosphate buffer (100 mM, 928 μL) in 1.5 mL Eppendorf tubes.
(§9) The test compounds (6.6 μL of 500 μM solution) were subsequently added to the suspensions, and the reaction
(§10) mixtures were incubated at 37 °C for 5 min. Afterward, the liver microsome reactions were initiated with 110 μL
(§11) of 10 mM NADPH and further incubated at 37 °C for the designated time course of the study. This procedure
(§12) provided experiments with a final volume of 1100 μL (0.6% organic solvent content) and a final test compound
(§13) concentration of 3 μM. Aliquots (100 μL) were removed from each reaction mixture in duplicate at 0, 5, 10, 15,
(§14) and 30 min time intervals and quenched with 100 μL of cold internal standard solution (ISTD, 2 μM
(§15) 7-ethoxy-d 5-coumarin in MeOH or MeCN). Quenched aliquots were then centrifuged at 12,500 g for 5-10 min, and
(§16) the resulting supernatants were withdrawn and placed in LC-MS vials to be analyzed by LC-MS/MS (Agilent
(§17) G6460C QQQ MS coupled with an Infinity II 1260 HPLC). Each test compound was run in tandem with positive and
(§18) negative control experiments for quality assurance. Positive control reactions were conducted at a final volume
(§19) of 550 μL for a single run of each time point. Lastly, the negative control experiment was conducted with test
(§20) compounds and liver microsomes in the absence of NADPH (150 μL) and analyzed at the 30 min time point.
(§21) Data Analysis. Each data point was analyzed in triplicate using in-between blank washes to avoid carry over and
(§22) to equilibrate the column for the subsequent runs. Averages of these triplicates for individual compounds at each
(§23) time point were then normalized to the data at 0 min, representing 100% test compound remaining or 0%
(§24) metabolism. Half-lives (t 1/2) were calculated by plotting ln of % test compound remaining versus time and
(§25) performing linear regression to determine slope.
(§26) Instrumentation and LC-MS/MS Method Development
(§27) LC-MS/MS analyses were conducted on an Agilent 1260 Infinity II HPLC equipped with an Agilent G6460 triple
(§28) quadrupole mass spectrometer (Agilent Technologies, USA). Reverse-phase HPLC separation for each compound
(§29) m) column maintained at 40 °C. The mobile phase used during analyses consisted of either MeOH-H2O (0.1% FA)
(§30) or MeCN-H2O (0.1% FA) at a flow rate of 0.5 mL/min. Each method was developed in the presence of the internal
(§31) standard (ISTD), 7-ethoxy-d 5-coumarin. Precursor and product ion detection was performed with Agilent Jet
(§32) Stream electrospray positive ionization (ESI+) in multiple reaction monitoring (MRM) mode. All MRM transitions,
(§33) MS conditions were as follows: dwell time of 100 ms; gas flow of 10 L/min; nebulizer pressure of 45 psi; delta EMV
(§34) of 200 V. Lastly, all acquired data was processed using Agilent 6460 Quantitative Analysis software.

[3] = in vitro; details: Sprague-Dawley, rat, microsomes
Method: Metabolic Stability Assay
as §1, §2, §3, §4, §5, §6, §7, §8, §9, §10, §11, §12, §13, §14, §15, §16, §17, §18, §19, §20, §21, §22, §23, §24, §25, §26, §27, §28, §29, §30, §31, §32, §33, §34

[4] = in vitro; details: CD-1, mouse, microsomes
Method: Metabolic Stability Assay
as §1, §2, §3, §4, §5, §6, §7, §8, §9, §10, §11, §12, §13, §14, §15, §16, §17, §18, §19, §20, §21, §22, §23, §24, §25, §26, §27, §28, §29, §30, §31, §32, §33, §34

[5] = system: CYP3A; set-up: method as in PMID 37171749; details: cited from earlier work
[6] = system: SARS-CoV-2-Nluc reporter virus; test: microbe, parasite or virus in culture; format: cell-based; details: Severe acute respiratory syndrome coronavirus 2; VeroE6/TMPRSS2 cells; parentheses denote 95% confidence intervals

Row | SMILES | major microsomal metabolite / metabolic route [1] | remaining at 5 min, 3 µM [2] | remaining at 10 min, 3 µM [2] | remaining at 0.25 h, 3 µM [2] | half-life at 3 µM ([2]; HLM t1/2) | half-life at 3 µM [3] | remaining at 5 min, 3 µM [3] | remaining at 10 min, 3 µM [3] | remaining at 0.25 h, 3 µM [3] | half-life at 3 µM [4] | remaining at 5 min, 3 µM [4] | remaining at 10 min, 3 µM [4] | remaining at 0.25 h, 3 µM [4] | CYP3A inhibition [5] | EC50 [6]
1 | Cn1cc(-c2cc(-c3cc(Cl)c(F)c(OCc4ccccc4Cl)c3)c(=O)n(-c3cccnc3)c2)c(=O)[nH]c1=O [Compound 4] | loss of the ortho-chlorobenzyl moiety | 46.1% | 22.7% | 16.3% | 7.2 min | 4.8 min | 63.6% | 26.6% | 17.4% | 2.4 min | 9.41% | 5.25% | 2.96% | – | –
2 | Cn1cnc(Cn2c(=O)[nH]/c(=N\c3cc4cn(C)nc4cc3Cl)n(Cc3cc(F)c(F)cc3F)c2=O)n1 [Compound S-217622, ensitrelvir, reference compound] | – | – | – | – | – | – | – | – | – | – | – | – | – | strong CYP3A inhibitor | 230 nM
